# From patent US11708366B2, “Heteroaryl substituted spiropiperidinyl derivatives and pharmaceutical uses thereof” (Novartis AG, priority 2020, dated 2023)
# How the values were obtained:
# [1] = molecular target: T1, LTC4S (Homo sapiens (Human), UniProt Q16873); assay: Human LTC4S enzymatic assay (HTRF detection of LTC4-Me); format: biochemical
# Description: A. Human LTC4S Enzymatic Assay:
# LTC4 synthase catalyzes the conversion of Leukotriene A4 (LTA4) to Leukotriene C4 (LTC4) in the presence of reduced glutathione (GSH) as a co-substrate. For compound testing, compounds are delivered as 10 mM stock solutions in 90% DMSO in matrix tubes. From this, a 1:3 dilution dose response series is prepared with a starting concentration of 30 μM to 0.1 nM. For the enzymatic assay 97.5 nL of compound/DMSO solution is transferred to each well and 5 μL enzyme solution (assay buffer: 50 mM bis-tris propane pH 7.3, 250 mM NaCl, 10 mM MgCl2, 0.001% MGN3) is added to the wells. […] The enzyme compound mixture is incubated at room temperature for 15 minutes prior to the addition of 5 μL substrate solution. […] A final substrate concentration of 400 μM GSH and 5 μM LTA4-Me is chosen.
# The LTA4-Me is obtained commercially in 2% triethylamine/hexane solvent. As this solvent is incompatible with the HTRF assay it has to be exchanged with DMSO according to following procedure: add 50 μL of 100% DMSO to 50 μL LTA4-Me (3 mM) in a 2 mL Eppendorf tube and mix gently by inverting the tube. The triethylamine/hexane is evaporated under a constant argon flux at room temperature. The DMSO-LTA4-Me (3 mM) is aliquoted and stored at −20° C. for not longer than 4 weeks, as it is not stable in DMSO due to its oxidizing properties.
# Upon addition of the substrate, the plate is immediately placed on a shaker for 5 min at room temperature. Immediately after the 5 min incubation 5 μL of H2O2 solution is added to all wells to stop the reaction. The plate contents are mixed before the addition of detection reagents. […] For the detection of the product of the enzymatic reaction LTC4-Me, the Cisbio LTC4-HTRF kit is used as the assay is compatible with the detection of LTC4-Me. 5 μL of diluted LTC4-d2 conjugate (according to manufacturer's protocol) are added to all wells of the assay plate and the contents gently mixed and incubated for 5 minutes at room temperature. […] The percent inhibition for each point of an inhibition curve is calculated after data interpolation using the LTC4-Me standard curve, to convert the HTRF signal to the amount of LTC4-Me produced within the LTC4S catalyzed reaction on each plate. The data is analyzed using parametric curve fitting to determine IC50 values of LTC4S inhibitors.
# [2] = molecular target: T1, LTC4S; assay: Human whole blood HTRF assay (LTC4 release after calcium ionophore A23187); format: cell-based; conditions: calcium ionophore A23187 stimulation, LTC4 by HTRF
# [3] = 0.75 nM enzyme, 400 μM GSH, 5 μM LTA4-Me, 15 min pre-incubation, read-out: human LTC4S IC50 (enzymatic assay)
# [4] = human whole blood diluted 1:3, 4 h incubation, read-out: human whole blood HTRF IC50
# [5] = human whole blood HTRF IC50, human whole blood diluted 1:3, 4 h incubation
molecule,measurement,setting,value
"O=C1CCCC2(CCN(c3nc(-c4ccc(F)cc4)n[nH]3)CC2)N1c1ccc(Cl)c(F)c1 [Example 26, 1-(4-chloro-3-fluorophenyl)-9-(3-(4-fluorophenyl)-1H-1,2,4-triazol-5-yl)-1,9-diazaspiro[5.5]undecan-2-one]",IC50,[1]; [3],16 nM
same,IC50,[2]; [4],110 nM
"O=C1CCCC2(CCN(c3ccn(-c4ccc(F)cc4)n3)CC2)N1c1ccc(Cl)c(F)c1 [Example 30, 1-(4-chloro-3-fluorophenyl)-9-(1-(4-fluorophenyl)-1H-pyrazol-3-yl)-1,9-diazaspiro[5.5]undecan-2-one]",IC50,[1]; [3],13 nM
same,IC50,[2]; [4],360 nM
"O=C1CCCC2(CCN(c3ncc(C4CCCCC4)o3)CC2)N1c1ccc(Cl)c(F)c1 [Example 27, 1-(4-chloro-3-fluorophenyl)-9-(5-cyclohexyloxazol-2-yl)-1,9-diazaspiro[5.5]undecan-2-one]",IC50,[1]; [3],25 nM
same,IC50,[2]; [4],59 nM
"O=C1CCCC2(CCN(c3cc(OCC(F)(F)F)ccn3)CC2)N1c1ccc(Cl)c(F)c1 [Example 81, 1-(4-chloro-3-fluorophenyl)-9-(4-(2,2,2-trifluoroethoxy)pyridin-2-yl)-1,9-diazaspiro[5.5]undecan-2-one]",IC50,[1]; [3],13 nM
same,IC50,[2]; [4],72 nM
"O=C1CCCC2(CCN(c3ccn4nc(C(F)(F)F)cc4n3)CC2)N1c1ccc(Cl)c(F)c1 [Example 5, 1-(4-chloro-3-fluorophenyl)-9-(2-(trifluoromethyl)pyrazolo[1,5-a]pyrimidin-5-yl)-1,9-diazaspiro[5.5]undecan-2-one]",IC50,[1]; [3],5 nM
same,IC50,[2]; [4],10 nM
"O=C1CCCC2(CCN(c3nsc(N4CC(C(F)(F)F)C4)n3)CC2)N1c1ccc(Cl)c(F)c1 [Example 24, 1-(4-chloro-3-fluorophenyl)-9-(5-(3-(trifluoromethyl)azetidin-1-yl)-1,2,4-thiadiazol-3-yl)-1,9-diazaspiro[5.5]undecan-2-one]",IC50,[1]; [3],33 nM
same,IC50,[2]; [4],110 nM
"O=C1CCCC2(CCN(c3cc(OCC(F)F)ncn3)CC2)N1c1ccc(Cl)c(F)c1 [Example 84, 1-(4-chloro-3-fluorophenyl)-9-(6-(2,2-difluoroethoxy)pyrimidin-4-yl)-1,9-diazaspiro[5.5]undecan-2-one]",IC50,[1]; [3],8 nM
same,IC50,[2]; [4],9 nM
"O=C1CCCC2(CCN(c3nnc(-c4ccccc4)o3)CC2)N1c1ccc(Cl)c(F)c1 [Example 28, 1-(4-chloro-3-fluorophenyl)-9-(5-phenyl-1,3,4-oxadiazol-2-yl)-1,9-diazaspiro[5.5]undecan-2-one]",IC50,[1]; [3],110 nM
same,IC50,[2]; [4],450 nM
"O=C1CCCC2(CCN(c3noc(C45CC(C(F)(F)F)(C4)C5)n3)CC2)N1c1ccc(Cl)c(F)c1 [Example 7, 1-(4-chloro-3-fluorophenyl)-9-(5-(3-(trifluoromethyl)bicyclo[1.1.1]pentan-1-yl)-1,2,4-oxadiazol-3-yl)-1,9-diazaspiro[5.5]undecan-2-one]",IC50,[1]; [3],76 nM
same,IC50,[2]; [4],100 nM
"O=C1CCCC2(CCN(c3nsc(N4CCC(F)(F)C4)n3)CC2)N1c1ccc(Cl)c(F)c1 [Example 23, 1-(4-chloro-3-fluorophenyl)-9-(5-(3,3-difluoropyrrolidin-1-yl)-1,2,4-thiadiazol-3-yl)-1,9-diazaspiro[5.5]undecan-2-one]",IC50,[1]; [3],61 nM
same,IC50,[2]; [4],45 nM
"O=C1CCCC2(CCN(c3ncn(-c4ccc(F)cc4)n3)CC2)N1c1ccc(Cl)c(F)c1 [Example 1, 1-(4-chloro-3-fluorophenyl)-9-(1-(4-fluorophenyl)-1H-1,2,4-triazol-3-yl)-1,9-diazaspiro[5.5]undecan-2-one]",IC50,[1]; [3],6 nM
same,IC50,[2]; [4],13 nM
"O=C1CCCC2(CCN(c3ccnc(N4CC5(CC5)C4)n3)CC2)N1c1ccc(Cl)c(F)c1 [Example 35a, 9-(2-(5-azaspiro[2.3]hexan-5-yl)pyrimidin-4-yl)-1-(4-chloro-3-fluorophenyl)-1,9-diazaspiro[5.5]undecan-2-one]",IC50,[1],12 nM
same,IC50,[2]; [5],40 nM
"O=C1CCCC2(CCN(c3nccc(C(F)(F)F)n3)CC2)N1c1ccc(Cl)c(F)c1 [Example 3, 1-(4-chloro-3-fluorophenyl)-9-(4-(trifluoromethyl)pyrimidin-2-yl)-1,9-diazaspiro[5.5]undecan-2-one]",IC50,[1]; [3],8 nM
same,IC50,[2]; [4],180 nM
"O=C1CCCC2(CCN(c3ncnc(N4CC(C(F)(F)F)C4)c3F)CC2)N1c1ccc(Cl)c(F)c1 [Example 37, 1-(4-chloro-3-fluorophenyl)-9-(5-fluoro-6-(3-(trifluoromethyl)azetidin-1-yl)pyrimidin-4-yl)-1,9-diazaspiro[5.5]undecan-2-one]",IC50,[1]; [3],12 nM
same,IC50,[2]; [4],120 nM
"O=C1CCCC2(CCN(c3cnn(-c4ccc(F)cc4)n3)CC2)N1c1ccc(Cl)c(F)c1 [Example 31, 1-(4-chloro-3-fluorophenyl)-9-(2-(4-fluorophenyl)-2H-1,2,3-triazol-4-yl)-1,9-diazaspiro[5.5]undecan-2-one]",IC50,[1]; [3],15 nM
same,IC50,[2]; [4],120 nM
"O=C1CCCC2(CCN(c3cn(-c4ccc(F)cc4)nn3)CC2)N1c1ccc(Cl)c(F)c1 [Example 29, 1-(4-chloro-3-fluorophenyl)-9-(1-(4-fluorophenyl)-1H-1,2,3-triazol-4-yl)-1,9-diazaspiro[5.5]undecan-2-one]",IC50,[1],57 nM
same,IC50,[2]; [5],180 nM
"1-(4-chloro-3-fluorophenyl)-9-(5-((1R,2R)-2-(trifluoromethyl)cyclopropyl)-1,2,4-oxadiazol-3-yl)-1,9-diazaspiro[5.5]undecan-2-one, or 1-(4-chloro-3-fluorophenyl)-9-(5-((1S,2S)-2-(trifluoromethyl)cyclopropyl)-1,2,4-oxadiazol-3-yl)-1,9-diazaspiro[5.5]undecan-2-one [Example 6a]",IC50,[1]; [3],190 nM
same,IC50,[2]; [4],310 nM
"O=C1CCCC2(CCN(c3nnn(-c4ccccc4)n3)CC2)N1c1ccc(Cl)c(F)c1 [Example 22, 1-(4-chloro-3-fluorophenyl)-9-(2-phenyl-2H-tetrazol-5-yl)-1,9-diazaspiro[5.5]undecan-2-one]",IC50,[1]; [3],11 nM
same,IC50,[2]; [4],530 nM
"O=C1CCCC2(CCN(c3nncc(C4CCCC4)n3)CC2)N1c1ccc(Cl)c(F)c1 [Example 20, 1-(4-chloro-3-fluorophenyl)-9-(5-cyclopentyl-1,2,4-triazin-3-yl)-1,9-diazaspiro[5.5]undecan-2-one]",IC50,[1]; [3],12 nM
same,IC50,[2]; [4],64 nM
"O=C1CCCC2(CCN(c3ncnc(N4CCCC4)c3F)CC2)N1c1ccc(Cl)c(F)c1 [Example 36, 1-(4-chloro-3-fluorophenyl)-9-(5-fluoro-6-(pyrrolidin-1-yl)pyrimidin-4-yl)-1,9-diazaspiro[5.5]undecan-2-one]",IC50,[1]; [3],6 nM
same,IC50,[2]; [4],44 nM
"Cn1cc(-c2ccc(F)cc2)nc(N2CCC3(CCCC(=O)N3c3ccc(Cl)c(F)c3)CC2)c1=O [Example 9, 1-(4-chloro-3-fluorophenyl)-9-(6-(4-fluorophenyl)-4-methyl-3-oxo-3,4-dihydropyrazin-2-yl)-1,9-diazaspiro[5.5]undecan-2-one]",IC50,[1]; [3],2 nM
same,IC50,[2]; [4],48 nM
"O=C1CCCC2(CCN(c3nsc(N4CCCC4)n3)CC2)N1c1ccc(Cl)c(F)c1 [Example 25, 1-(4-chloro-3-fluorophenyl)-9-(5-(pyrrolidin-1-yl)-1,2,4-thiadiazol-3-yl)-1,9-diazaspiro[5.5]undecan-2-one]",IC50,[1]; [3],62 nM
same,IC50,[2]; [4],170 nM
